Measured values as given in PubChem BioAssay AID330 (DTP/NCI, 2004).
“And” between values parts separate entries of the source, which are not always exact repeats. Identical values can stand only once. Toxic doses and inconclusive results are not listed.

Test system: P388 leukemia ip, CD2F1 mice, survival T/C
Assay: NCI In Vivo Anticancer Drug Screen. Data for tumor model P388 Leukemia (intraperitoneal) in CD2F1 (CDF1) mice
Details: endpoint: median survival time, higher = longer survival
Summary of the method: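 Mice carrying the transplanted tumor received test compound or vehicle. Survival was recorded in each group, and the value is the treated-group measurement divided by that of the vehicle-treated control group.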

[1] = dose: 50.0 mg/kg/injection, schedule: Q01DX009 (ip), vehicle: Klucel (hydroxypropylcellulose) (HPC)
[2] = dose: 100.0 mg/kg/injection, schedule: Q01DX009 (ip), vehicle: Klucel (hydroxypropylcellulose) (HPC)
[3] = dose: 25.0 mg/kg/injection, schedule: Q04DX003 (ip), vehicle: saline with Tween-80
[4] = dose: 50.0 mg/kg/injection, schedule: Q04DX003 (ip), vehicle: saline with Tween-80
[5] = dose: 100.0 mg/kg/injection, schedule: Q04DX003 (ip), vehicle: saline with Tween-80
[6] = dose: 50.0 mg/kg/injection, schedule: Q01DX009 (ip), vehicle: saline
[7] = dose: 100.0 mg/kg/injection, schedule: Q01DX009 (ip), vehicle: saline
[8] = dose: 50.0 mg/kg/injection, schedule: Q01DX009 (ip), vehicle: saline with Tween-80
[9] = dose: 100.0 mg/kg/injection, schedule: Q01DX009 (ip), vehicle: saline with Tween-80
[10] = dose: 12.5 mg/kg/injection, schedule: Q01DX009 (ip), vehicle: saline
[11] = dose: 25.0 mg/kg/injection, schedule: Q01DX009 (ip), vehicle: saline

## CC(C)NCC(O)c1ccc(NS(C)(=O)=O)cc1 (stereo unspecified)
dose: 50.0 mg/kg/injection, schedule: Q01DX005 (ip), vehicle: saline
  T/C: 108 % of control
dose: 100.0 mg/kg/injection, schedule: Q01DX005 (ip), vehicle: saline
  T/C: 100 % of control
dose: 200.0 mg/kg/injection, schedule: Q01DX005 (ip), vehicle: saline
  T/C: 104 % of control

## COC(=O)c1nc(N)nc(C(=O)OC)c1C(=O)c1ccncc1
dose: 60.0 mg/kg/injection, schedule: Q01DX005 (ip), vehicle: Klucel (hydroxypropylcellulose) (HPC)
  T/C: 92 % of control
dose: 120.0 mg/kg/injection, schedule: Q01DX005 (ip), vehicle: Klucel (hydroxypropylcellulose) (HPC)
  T/C: 96 % of control

## C=C(CBr)C(=O)OCC
dose: 7.5 mg/kg/injection, schedule: Q01DX005 (ip), vehicle: saline with Tween-80
  T/C: 103 % of control
dose: 15.0 mg/kg/injection, schedule: Q01DX005 (ip), vehicle: saline with Tween-80
  T/C: 88 % of control
dose: 30.0 mg/kg/injection, schedule: Q01DX005 (ip), vehicle: saline with Tween-80
  T/C: 103 % of control

## Cc1nn(C(=O)c2ccncc2)c(C)c1N=Nc1ccc(S(N)(=O)=O)cc1
[1]
  T/C: 105 % of control
[2]
  T/C: 101 % of control

## CC1=C2CCC(O)C2(C)CCC(=O)C1 (stereo unspecified)
dose: 100.0 mg/kg/injection, schedule: Q04DX003 (ip), vehicle: Klucel (hydroxypropylcellulose) (HPC)
  T/C: 105 % of control
dose: 200.0 mg/kg/injection, schedule: Q04DX003 (ip), vehicle: Klucel (hydroxypropylcellulose) (HPC)
  T/C: 99 % of control

## CCCC(C)C/C(C)=C/C(C)(C)C(CC(=O)N1CCOCC1)C(=O)O (stereo unspecified)
[3]
  T/C: 100 % of control
[4]
  T/C: 100 % of control
[5]
  T/C: 100 % of control

## CCCCCCCCCCCCCCC(Br)C(=O)O (stereo unspecified)
[6]
  T/C: 101 % of control
[7]
  T/C: 103 % of control

## CCc1ccc(C2(C)C(=O)c3ccccc3C2=O)cc1
dose: 100.0 mg/kg/injection, schedule: Q04DX002 (ip), vehicle: saline
  T/C: 101 % of control
dose: 200.0 mg/kg/injection, schedule: Q04DX002 (ip), vehicle: saline
  T/C: 100 % of control
dose: 400.0 mg/kg/injection, schedule: Q04DX002 (ip), vehicle: saline
  T/C: 104 % of control

## CC(=O)C(C)(NCc1ccccc1)c1ccccc1 (stereo unspecified)
[1]
  T/C: 101 % of control
[2]
  T/C: 108 % of control
dose: 200.0 mg/kg/injection, schedule: Q01DX009 (ip), vehicle: Klucel (hydroxypropylcellulose) (HPC)
  T/C: 108 % of control
dose: 400.0 mg/kg/injection, schedule: Q01DX009 (ip), vehicle: Klucel (hydroxypropylcellulose) (HPC)
  T/C: 90 % of control

## CC(C)c1cccc(C(C)C)c1Oc1ccc([N+](=O)[O-])cc1[N+](=O)[O-]
[4]
  T/C: 94 % of control
[5]
  T/C: 93 % of control
dose: 200.0 mg/kg/injection, schedule: Q04DX003 (ip), vehicle: saline with Tween-80
  T/C: 92 % of control
dose: 400.0 mg/kg/injection, schedule: Q04DX003 (ip), vehicle: saline with Tween-80
  T/C: 90 % of control

## CNC(=O)O/N=C/c1ccccc1-c1ccccc1
[8]
  T/C: 97 % of control
[9]
  T/C: 86 % of control

## CC(C)NCC(O)c1ccccc1Cl (stereo unspecified)
dose: 12.5 mg/kg/injection, schedule: Q01DX005 (ip), vehicle: saline with Tween-80
  T/C: 100 % of control
dose: 25.0 mg/kg/injection, schedule: Q01DX005 (ip), vehicle: saline with Tween-80
  T/C: 104 % of control
dose: 50.0 mg/kg/injection, schedule: Q01DX005 (ip), vehicle: saline with Tween-80
  T/C: 100 % of control and 90 % of control

## ClCCN(CCCl)c1ccc(/C=N/Nc2ccnc3ccccc23)cc1
dose: 0.39 mg/kg/injection, schedule: Q01DX009 (ip), vehicle: DMSO
  T/C: 92 % of control
dose: 0.78 mg/kg/injection, schedule: Q01DX009 (ip), vehicle: DMSO
  T/C: 87 % of control
dose: 1.56 mg/kg/injection, schedule: Q01DX009 (ip), vehicle: DMSO
  T/C: 90 % of control

## N/C(Cc1noc2ccccc12)=N\O
[6]
  T/C: 109 % of control
[7]
  T/C: 107 % of control

## CC(=O)C(C)OP(=O)(O)OCC[N+](C)(C)C (stereo unspecified)
[10]
  T/C: 100 % of control
[11]
  T/C: 104 % of control
[6]
  T/C: 114 % of control

## c1ccc2oc(NCCSSCCNc3nc4ccccc4o3)nc2c1
dose: 12.5 mg/kg/injection, schedule: Q01DX009 (ip), vehicle: other
  T/C: 100 % of control
dose: 25.0 mg/kg/injection, schedule: Q01DX009 (ip), vehicle: other
  T/C: 92 % of control
dose: 50.0 mg/kg/injection, schedule: Q01DX009 (ip), vehicle: other
  T/C: 86 % of control and 93 % of control

## Cc1cc(N)cc(N)c1O
dose: 1.56 mg/kg/injection, schedule: Q01DX009 (ip), vehicle: saline
  T/C: 97 % of control
dose: 3.12 mg/kg/injection, schedule: Q01DX009 (ip), vehicle: saline
  T/C: 95 % of control
dose: 6.25 mg/kg/injection, schedule: Q01DX009 (ip), vehicle: saline
  T/C: 97 % of control

## O=c1c2ccccc2sc2c(N(CCO)CCO)cc3c(c12)CCCC3
dose: 25.0 mg/kg/injection, schedule: Q01DX005 (ip), vehicle: distilled water + Tween-80
  T/C: 103 % of control
dose: 50.0 mg/kg/injection, schedule: Q01DX005 (ip), vehicle: distilled water + Tween-80
  T/C: 101 % of control
dose: 100.0 mg/kg/injection, schedule: Q01DX005 (ip), vehicle: distilled water + Tween-80
  T/C: 100 % of control
dose: 200.0 mg/kg/injection, schedule: Q01DX005 (ip), vehicle: distilled water + Tween-80
  T/C: 95 % of control

## CN=C(N)c1ccc(N=C(N)c2ccc(-c3ccc(C(N)=Nc4ccc(C(N)=NC)cc4)cc3)cc2)cc1
dose: 18.0 mg/kg/injection, schedule: Q01DX009 (ip), vehicle: saline
  T/C: 154 % of control
dose: 625.0 micrograms/kg/injection, schedule: Q01DX009 (ip), vehicle: saline with Tween-80
  T/C: 91 % of control
dose: 1250.0 micrograms/kg/injection, schedule: Q01DX009 (ip), vehicle: saline with Tween-80
  T/C: 108 % of control
dose: 2500.0 micrograms/kg/injection, schedule: Q01DX009 (ip), vehicle: saline with Tween-80
  T/C: 108 % of control

## CCCN(CCC)C(=O)CN(C=O)c1ncc([N+](=O)[O-])s1
dose: 25.0 mg/kg/injection, schedule: Q01DX001 (ip), vehicle: saline
  T/C: 104 % of control
dose: 50.0 mg/kg/injection, schedule: Q01DX001 (ip), vehicle: saline
  T/C: 108 % of control
dose: 100.0 mg/kg/injection, schedule: Q01DX001 (ip), vehicle: saline
  T/C: 107 % of control

## CN(C/C=C/CN(C)C(=S)Nc1ccccc1)C(=S)Nc1ccccc1
[10]
  T/C: 95 % of control
[11]
  T/C: 106 % of control
dose: 25.0 mg/kg/injection, schedule: Q01DX009 (ip), vehicle: suspension in saline
  T/C: 91 % of control
[6]
  T/C: 90 % of control
dose: 50.0 mg/kg/injection, schedule: Q01DX009 (ip), vehicle: suspension in saline
  T/C: 86 % of control and 87 % of control

## O=C1C=C(C2=CC(=O)c3cccc(O)c3C2=O)C(=O)c2c(O)cccc21
dose: 6.25 mg/kg/injection, schedule: Q01DX009 (ip), vehicle: Klucel (hydroxypropylcellulose) (HPC)
  T/C: 115 % of control
dose: 12.5 mg/kg/injection, schedule: Q01DX009 (ip), vehicle: Klucel (hydroxypropylcellulose) (HPC)
  T/C: 115 % of control

## O=c1cc2n(c(=O)n1-c1ccccc1)CCCC2
dose: 60.0 mg/kg/injection, schedule: Q01DX005 (ip), vehicle: saline with Tween-80
  T/C: 102 % of control
dose: 120.0 mg/kg/injection, schedule: Q01DX005 (ip), vehicle: saline with Tween-80
  T/C: 100 % of control
dose: 240.0 mg/kg/injection, schedule: Q01DX005 (ip), vehicle: saline with Tween-80
  T/C: 103 % of control

## c1cc(OCC2CO2)ccc1OCC1CO1 (stereo unspecified)
dose: 12.5 mg/kg/injection, schedule: Q01DX009 (ip), vehicle: saline with Tween-80
  T/C: 95 % of control
dose: 25.0 mg/kg/injection, schedule: Q01DX009 (ip), vehicle: saline with Tween-80
  T/C: 96 % of control
[8]
  T/C: 113 % of control
[9]
  T/C: 108 % of control and 111 % of control
dose: 100.0 mg/kg/injection, schedule: Q04DX003 (ip), vehicle: saline sonified
  T/C: 100 % of control
dose: 200.0 mg/kg/injection, schedule: Q01DX009 (ip), vehicle: saline with Tween-80
  T/C: 108 % of control
dose: 200.0 mg/kg/injection, schedule: Q04DX003 (ip), vehicle: saline sonified
  T/C: 104 % of control
dose: 264.0 mg/kg/injection, schedule: Q04DX003 (ip), vehicle: saline with Tween-80
  T/C: 118 % of control
dose: 400.0 mg/kg/injection, schedule: Q01DX009 (ip), vehicle: saline with Tween-80
  T/C: 112 % of control
dose: 600.0 mg/kg/injection, schedule: Q04DX003 (ip), vehicle: saline with Tween-80
  T/C: 113 % of control

## C=CCCCCCCCCC(=O)N(CCOC)CCOC
[3]
  T/C: 100 % of control
[4]
  T/C: 100 % of control
[5]
  T/C: 100 % of control
